Data as given in article PMC11907390, “Proteome‐Wide Profiling of Olaparib Interactors Using a Biotinylated Photoaffinity Probe” (Chembiochem, 2025).

Key:
[1] = molecular target: PARP1 (Homo sapiens, UniProt P09874); assay: PARP1 activity assay (Figure S6); also photoaffinity pull-down from HeLa lysate with MS and Western blot; type: biochemical
[2] = molecular target: CDK8 (Homo sapiens, UniProt P49336); assay: photoaffinity labeling, streptavidin pull-down and MS in HeLa lysate, enriched over probe […] in two biological replicates; type: cell-based
[3] = molecular target: PARP4 (Homo sapiens, UniProt Q9UKK3); assay: competition of probe […] photoaffinity pull-down in HeLa lysate by unlabeled olaparib ([…]), MS; type: cell-based
Sequence of PARP4 (Q9UKK3 whole entry): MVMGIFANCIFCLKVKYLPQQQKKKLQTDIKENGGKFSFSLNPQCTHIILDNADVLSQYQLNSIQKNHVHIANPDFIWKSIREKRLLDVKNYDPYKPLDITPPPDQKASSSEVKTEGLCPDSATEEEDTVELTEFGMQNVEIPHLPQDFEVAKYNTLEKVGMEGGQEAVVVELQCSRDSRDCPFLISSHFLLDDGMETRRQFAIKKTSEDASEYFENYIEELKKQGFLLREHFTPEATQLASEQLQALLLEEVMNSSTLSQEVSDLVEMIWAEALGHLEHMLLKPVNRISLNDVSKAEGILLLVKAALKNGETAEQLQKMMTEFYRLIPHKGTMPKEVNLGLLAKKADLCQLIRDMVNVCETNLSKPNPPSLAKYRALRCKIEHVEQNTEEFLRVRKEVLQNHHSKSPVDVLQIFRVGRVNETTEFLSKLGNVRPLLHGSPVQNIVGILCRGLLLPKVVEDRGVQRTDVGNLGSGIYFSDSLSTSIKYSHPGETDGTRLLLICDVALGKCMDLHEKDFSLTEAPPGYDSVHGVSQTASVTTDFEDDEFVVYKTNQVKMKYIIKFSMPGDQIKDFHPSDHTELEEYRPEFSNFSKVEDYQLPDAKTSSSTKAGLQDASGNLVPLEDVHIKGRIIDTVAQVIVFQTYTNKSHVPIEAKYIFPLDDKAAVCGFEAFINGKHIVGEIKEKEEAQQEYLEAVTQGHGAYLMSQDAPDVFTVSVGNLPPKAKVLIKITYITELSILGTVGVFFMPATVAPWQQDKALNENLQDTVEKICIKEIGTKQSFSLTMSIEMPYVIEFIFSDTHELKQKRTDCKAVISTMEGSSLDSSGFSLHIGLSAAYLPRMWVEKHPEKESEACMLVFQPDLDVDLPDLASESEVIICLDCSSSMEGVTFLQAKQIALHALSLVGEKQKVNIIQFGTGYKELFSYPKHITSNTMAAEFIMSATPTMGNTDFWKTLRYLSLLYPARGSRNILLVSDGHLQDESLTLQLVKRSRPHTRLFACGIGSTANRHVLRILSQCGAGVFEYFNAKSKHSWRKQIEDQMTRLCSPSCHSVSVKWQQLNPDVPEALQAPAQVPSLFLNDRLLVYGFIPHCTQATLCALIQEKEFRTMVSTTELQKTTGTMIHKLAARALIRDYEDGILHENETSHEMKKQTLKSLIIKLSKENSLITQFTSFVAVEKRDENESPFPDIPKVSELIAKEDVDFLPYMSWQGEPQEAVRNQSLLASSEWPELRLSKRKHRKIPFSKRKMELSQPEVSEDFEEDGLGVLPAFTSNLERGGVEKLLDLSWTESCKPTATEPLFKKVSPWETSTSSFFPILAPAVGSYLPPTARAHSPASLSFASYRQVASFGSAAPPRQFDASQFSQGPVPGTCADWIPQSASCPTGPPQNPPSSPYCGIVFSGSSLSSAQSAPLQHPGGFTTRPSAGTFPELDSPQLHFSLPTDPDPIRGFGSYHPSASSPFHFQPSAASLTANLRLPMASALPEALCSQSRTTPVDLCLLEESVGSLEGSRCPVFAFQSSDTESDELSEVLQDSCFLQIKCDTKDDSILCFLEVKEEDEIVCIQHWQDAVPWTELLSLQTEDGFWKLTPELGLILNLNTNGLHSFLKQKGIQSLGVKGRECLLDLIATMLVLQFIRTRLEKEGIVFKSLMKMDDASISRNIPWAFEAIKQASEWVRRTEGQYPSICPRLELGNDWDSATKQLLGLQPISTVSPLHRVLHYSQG

Sequence of PARP1 (P09874 2-1014): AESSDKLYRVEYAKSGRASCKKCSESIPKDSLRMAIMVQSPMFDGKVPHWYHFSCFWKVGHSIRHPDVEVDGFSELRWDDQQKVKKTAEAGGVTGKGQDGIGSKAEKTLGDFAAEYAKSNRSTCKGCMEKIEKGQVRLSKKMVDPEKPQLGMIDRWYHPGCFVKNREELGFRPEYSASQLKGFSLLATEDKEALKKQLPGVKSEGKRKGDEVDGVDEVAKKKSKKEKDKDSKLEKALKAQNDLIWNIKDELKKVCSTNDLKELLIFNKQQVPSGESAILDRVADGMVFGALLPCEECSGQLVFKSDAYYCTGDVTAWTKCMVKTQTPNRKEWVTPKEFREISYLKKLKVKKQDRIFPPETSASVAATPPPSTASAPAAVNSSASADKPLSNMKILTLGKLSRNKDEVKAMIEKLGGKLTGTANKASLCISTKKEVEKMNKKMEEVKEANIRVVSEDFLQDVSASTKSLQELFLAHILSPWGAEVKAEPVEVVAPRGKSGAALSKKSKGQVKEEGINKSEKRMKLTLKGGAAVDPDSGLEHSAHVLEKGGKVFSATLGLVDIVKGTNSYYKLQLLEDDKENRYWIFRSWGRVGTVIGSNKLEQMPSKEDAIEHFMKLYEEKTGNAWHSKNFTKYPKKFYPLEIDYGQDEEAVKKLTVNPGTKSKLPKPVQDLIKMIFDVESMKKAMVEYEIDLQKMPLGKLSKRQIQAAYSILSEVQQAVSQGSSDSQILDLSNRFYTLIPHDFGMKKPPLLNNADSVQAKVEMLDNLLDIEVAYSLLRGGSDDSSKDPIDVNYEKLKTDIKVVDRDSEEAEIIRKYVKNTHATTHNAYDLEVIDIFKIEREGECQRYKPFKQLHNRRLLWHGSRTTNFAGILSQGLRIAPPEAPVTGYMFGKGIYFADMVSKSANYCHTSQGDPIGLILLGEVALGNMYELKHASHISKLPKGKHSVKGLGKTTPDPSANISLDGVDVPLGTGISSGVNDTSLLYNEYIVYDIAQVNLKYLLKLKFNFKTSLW
Sequence of CDK8 (P49336 whole entry): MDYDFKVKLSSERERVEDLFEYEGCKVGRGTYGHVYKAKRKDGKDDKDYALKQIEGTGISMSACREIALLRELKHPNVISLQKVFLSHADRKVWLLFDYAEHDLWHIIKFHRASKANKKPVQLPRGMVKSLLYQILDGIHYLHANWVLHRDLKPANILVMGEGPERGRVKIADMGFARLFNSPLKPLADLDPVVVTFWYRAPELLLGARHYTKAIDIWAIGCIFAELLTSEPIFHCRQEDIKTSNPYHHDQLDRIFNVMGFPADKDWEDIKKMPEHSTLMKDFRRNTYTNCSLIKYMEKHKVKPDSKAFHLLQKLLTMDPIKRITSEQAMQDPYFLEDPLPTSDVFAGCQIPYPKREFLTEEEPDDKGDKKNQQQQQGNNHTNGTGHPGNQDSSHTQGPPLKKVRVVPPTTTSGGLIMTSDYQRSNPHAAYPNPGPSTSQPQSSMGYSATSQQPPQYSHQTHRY

Row | SMILES | IC50 [1] [µM] | photoaffinity labeling, streptavidin pull-down and MS in HeLa lysate, enriched o [2] | competition of probe 4 photoaffinity pull-down in HeLa lysate by unlabeled olapa [3]
1 | O=C(CCCC[C@@H]1SC[C@@H]2NC(=O)N[C@@H]21)NCCOCCOCCOCCn1cc(CCCCC2(CCC(=O)N3CCN(C(=O)c4cc(Cc5n[nH]c(=O)c6ccccc56)ccc4F)CC3)N=N2)nn1 [compound 4, probe 4] | 3.8 | CDK8 and its paralogue CDK19, both transcriptional regulators, were identified in our screening as direct olaparib interactors | –
2 | O=C(c1cc(Cc2n[nH]c(=O)c3ccccc23)ccc1F)N1CCN(C(=O)C2CC2)CC1 [olaparib] | – | – | This concentration‐dependent competition demonstrates the specificity of these interactions for the olaparib pharmacophore
